Earlier results on eleven compounds are cited in patent US20240247024A1, “INHIBITORS OF NICOTINAMIDE N-METHYL TRANSFERASE (NNMT)” (UNIVERSITEIT LEIDEN, priority 2021, published 2024).

Structures are written as SMILES.

One series addresses T1, NNMT (Homo sapiens, UniProt P40261).
T1 sequence (P40261 1-264): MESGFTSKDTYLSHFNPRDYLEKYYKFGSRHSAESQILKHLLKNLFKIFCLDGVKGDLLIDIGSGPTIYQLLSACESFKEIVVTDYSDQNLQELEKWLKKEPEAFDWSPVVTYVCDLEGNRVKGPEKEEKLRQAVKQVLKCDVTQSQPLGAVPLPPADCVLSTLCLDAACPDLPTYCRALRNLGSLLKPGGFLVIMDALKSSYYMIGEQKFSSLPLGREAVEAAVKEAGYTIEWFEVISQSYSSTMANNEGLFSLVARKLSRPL
Also on record: The enzymatic activity assays were performed using NNMT at a final concentration of 100 nM diluted in assay buffer. The following applies: background section, cited from earlier work; for IC50: known NNMT inhibitors, read-out: IC50 against NNMT.

In a further series the test system is aged mouse model. As to conditions: cited from earlier work.
For series [1], the system named is diet-induced obese (DIO) mice. The following applies: cited from earlier work.
Another series relates to HSC-2 oral cancer cells. The following applies: cited from earlier work.
The test system of the next series is high-fat DIO mice. As to conditions: cited from earlier work.
The conditions of series [2]: cited from earlier work.
In another series the test system is U2OS cells. The following applies: cited from earlier work.
For series [3] the following is noted: rapidly degraded by SAHH to adenosine and homocysteine; cited from earlier work.
For series [4] the following is noted: cited from earlier work. The source holds these as a separate data set.
For series [5] the following is noted: cited from earlier work. The source holds these as a separate data set.

Turning to `Cc1cccc2ccc[n+](C)c12` [8-methyl-1-MQ], the IC50 at NNMT is 1.8 µM.
On to `C[n+]1cccc2ccccc21` [Compound 1-MQ], for which the IC50 at NNMT was 12.1 µM.
`C[n+]1cccc2c(N)cccc21` [Compound 5-amino-1-MQ, 5-amino-1-MQ]: in the series with aged mouse model, the muscle regeneration entry is “accelerate muscle regeneration”. The IC50 at NNMT is 1.2 µM. Also, in [1], the adipocyte size entry is recorded as “decreased”; the “body weight and white adipose mass” value is recorded as “significantly reduced”; the “plasma total cholesterol levels” value is reported as “lowered”.
For `Nc1ncnc2c1ncn2[C@@H]1O[C@H](CN(CC[C@H](N)C(=O)O)Cc2ccc3ccccc3c2)[C@@H](O)[C@H]1O` [GYZ191], the “effect on cell viability” value with HSC-2 oral cancer cells is on record as “significant inhibitory effect”.
As to `COc1ccc(C(N)=O)cn1` [JBSNF-000088], at NNMT, the IC50 is 2.4 µM. In the series on high-fat DIO mice, the body weight entry is “reduce”, the glucose tolerance result is given as “normalize”, the insulin sensitivity entry is reported as “improve” and the “plasma levels of MNA” value is reported as “reduce”.
Regarding `NC(=O)c1cccc(C#CCN(CC[C@H](N)C(=O)O)C[C@H]2O[C@@H](n3cnc4c(N)ncnc43)[C@H](O)[C@@H]2O)c1` [LL320], in series [2], the cell permeability entry is “poor cell permeability”.
Regarding `NC(=O)c1cccc(CCN(CCC[C@H](N)C(=O)O)C[C@H]2O[C@@H](n3cnc4c(N)ncnc43)[C@H](O)[C@@H]2O)c1` [MS2734], the IC50 at NNMT was 14 µM.
As to `NC(=O)c1cccc(CCN(CC[C@H](N)C(=O)O)C[C@H]2O[C@@H](n3cnc4c(N)ncnc43)[C@H](O)[C@@H]2O)c1` [MS2756], the IC50 on NNMT is 160 µM.
As to `NC(=O)c1cccc(C#C[C@@H](CC[C@H](N)C(=O)O)C[C@H]2O[C@@H](n3cnc4c(N)ncnc43)[C@H](O)[C@@H]2O)c1` [NS1], the “MNA levels in cells” value in the series on U2OS cells is on record as “only moderately decreased”. At NNMT (known bisubstrate inhibitors, read-out: Ki against NNMT), the Ki is 0.0005 µM.
On to `Nc1ncnc2c1ncn2[C@@H]1O[C@H](CSCC[C@H](N)C(=O)O)[C@@H](O)[C@H]1O` [SAH, S-adenosyl-1-homocysteine], for which the “activity in cellular assays” value in series [3] is given as “loses its activity”.
For `Nc1ncnc2c1ncn2[C@@H]1O[C@H](C[C@@H](N)CC[C@H](N)C(=O)O)[C@@H](O)[C@H]1O` [Sinefungin, sinefungin], in series [4], the “toxicity in animal models” value is “severe toxicity”. In addition, in series [5], the cell membrane permeability entry is reported as “low cell membrane permeability”.

Usually IC50 stands for the concentration that inhibits the measured activity by half.
